Measured values reported in patent US5672715A, “Herbicidal substituted 3-aryl-pyrazoles” (Monsanto Company, priority 1995, dated 1997).

Legend:
Assay type in all cases: in vivo
Barnyardgrass [1] = experiment: pre-emergence herbicide test; settings: Echinochloa crus-galli, pre-emergence, 0.25 lb/A; read-out: % plant inhibition
In short: (§1)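 Steps: compact topsoil in pan; place seeds; level-fill with cover soil; add a known amount of compound before or after covering; keep pans in greenhouse, bottom-watering as needed; rate % inhibition at about 14 days.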

Bedstraw Catchweed [2] = experiment: pre-emergence herbicide test; settings: 0.25 lb/A
In short: as §1

Birdseye Speedwell [3] = experiment: pre-emergence herbicide test; settings: pre-emergence, 0.25 lb/A; read-out: % plant inhibition
In short: as §1

Blackgrass [4] = experiment: pre-emergence herbicide test; settings: 0.25 lb/A
In short: as §1

Cocklebur [5] = experiment: pre-emergence herbicide test; settings: 0.25 lb/A
In short: as §1

Common Chickweed [6] = experiment: pre-emergence herbicide test; settings: pre-emergence, 0.25 lb/A; read-out: % plant inhibition
In short: as §1

Corn [7] = experiment: pre-emergence herbicide test; settings: 0.25 lb/A
In short: as §1

Downy Brome [8] = experiment: pre-emergence herbicide test; settings: Bromus tectorum, pre-emergence, 0.25 lb/A; read-out: % plant inhibition
In short: as §1

Giant Foxtail [9] = experiment: pre-emergence herbicide test; settings: Setaria faberi, pre-emergence, 0.25 lb/A; read-out: % plant inhibition
In short: as §1

Green Foxtail [10] = experiment: pre-emergence herbicide test; settings: Setaria viridis, pre-emergence; 0.25 lb/A; read-out: % plant inhibition
In short: as §1

Morning Glory [11] = experiment: pre-emergence herbicide test; settings: Ipomoea, pre-emergence, 0.25 lb/A; read-out: % plant inhibition
In short: as §1

Rape [12] = experiment: pre-emergence herbicide test; settings: pre-emergence, 0.25 lb/A; read-out: % plant inhibition
In short: as §1

Seedling Johnsongrass [13] = experiment: pre-emergence herbicide test; settings: Sorghum halepense, pre-emergence, 0.25 lb/A; read-out: % plant inhibition
In short: as §1

Soybean [14] = experiment: pre-emergence herbicide test; settings: 0.25 lb/A
In short: as §1

Velvetleaf [15] = experiment: pre-emergence herbicide test; settings: Abutilon theophrasti, pre-emergence, 0.25 lb/A; read-out: % plant inhibition
In short: as §1

Wheat [16] = experiment: pre-emergence herbicide test; settings: Triticum aestivum, pre-emergence, 0.25 lb/A; read-out: % plant inhibition
In short: as §1

Wild Oats [17] = experiment: pre-emergence herbicide test; settings: 0.25 lb/A
In short: as §1

Barnyardgrass [18] = experiment: post-emergence herbicide test; settings: Echinochloa crus-galli, post-emergence, 0.25 lb/A; read-out: % plant inhibition
In short: (§2)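 Post-emergence activity is given as percent inhibition per species. Test compounds were atomizer-sprayed at 170.3 kPa, 1870 L/Ha carrier volume and roughly 0.4% v/v emulsifier onto greenhouse-raised plants aged two to three weeks, at the stated rates.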

Bedstraw Catchweed [19] = experiment: post-emergence herbicide test; settings: 0.25 lb/A
In short: as §2

Birdseye Speedwell [20] = experiment: post-emergence herbicide test; settings: post-emergence, 0.25 lb/A; read-out: % plant inhibition
In short: as §2

Blackgrass [21] = experiment: post-emergence herbicide test; settings: 0.25 lb/A
In short: as §2

Cocklebur [22] = experiment: post-emergence herbicide test; settings: Xanthium strumarium, post-emergence, 0.25 lb/A; read-out: % plant inhibition
In short: as §2

Common Chickweed [23] = experiment: post-emergence herbicide test; settings: post-emergence, 0.25 lb/A; read-out: % plant inhibition
In short: as §2

Corn [24] = experiment: post-emergence herbicide test; settings: 0.25 lb/A
In short: as §2

Downy Brome [25] = experiment: post-emergence herbicide test; settings: 0.25 lb/A
In short: as §2

Giant Foxtail [26] = experiment: post-emergence herbicide test; settings: 0.25 lb/A
In short: as §2

Green Foxtail [27] = experiment: post-emergence herbicide test; settings: Setaria viridis, post-emergence, 0.25 lb/A; read-out: % plant inhibition
In short: as §2

Morning Glory [28] = experiment: post-emergence herbicide test; settings: 0.25 lb/A
In short: as §2

Rape [29] = experiment: post-emergence herbicide test; settings: post-emergence, 0.25 lb/A; read-out: % plant inhibition
In short: as §2

Seedling Johnsongrass [30] = experiment: post-emergence herbicide test; settings: Sorghum halepense, post-emergence, 0.25 lb/A; read-out: % plant inhibition
In short: as §2

Soybean [31] = experiment: post-emergence herbicide test; settings: 0.25 lb/A
In short: as §2

Velvetleaf [32] = experiment: post-emergence herbicide test; settings: Abutilon theophrasti, post-emergence, 0.25 lb/A; read-out: % plant inhibition
In short: as §2

Wheat [33] = experiment: post-emergence herbicide test; settings: Triticum aestivum, post-emergence, 0.25 lb/A; read-out: % plant inhibition
In short: as §2

Wild Oats [34] = experiment: post-emergence herbicide test; settings: 0.25 lb/A
In short: as §2

Structure (SMILES)	inhibition at 280.212 g/ha (Barnyardgrass [1]) [%]	inhibition at 280.212 g/ha (Birdseye Speedwell [3]) [%]	inhibition at 280.212 g/ha (Common Chickweed [6]) [%]	inhibition at 280.212 g/ha (Downy Brome [8]) [%]	inhibition at 280.212 g/ha (Giant Foxtail [9]) [%]	inhibition at 280.212 g/ha (Green Foxtail [10]) [%]	inhibition at 280.212 g/ha (Morning Glory [11]) [%]	inhibition at 280.212 g/ha (Rape [12]) [%]	inhibition at 280.212 g/ha (Seedling Johnsongrass [13]) [%]	inhibition at 280.212 g/ha (Velvetleaf [15]) [%]	inhibition at 280.212 g/ha (Wheat [16]) [%]	inhibition at 280.212 g/ha (Barnyardgrass [18]) [%]	inhibition at 280.212 g/ha (Birdseye Speedwell [20]) [%]	inhibition at 280.212 g/ha (Cocklebur [22]) [%]	inhibition at 280.212 g/ha (Common Chickweed [23]) [%]	inhibition at 280.212 g/ha (Green Foxtail [27]) [%]	inhibition at 280.212 g/ha (Rape [29]) [%]	inhibition at 280.212 g/ha (Seedling Johnsongrass [30]) [%]	inhibition at 280.212 g/ha (Velvetleaf [32]) [%]	inhibition at 280.212 g/ha (Wheat [33]) [%]	other results
Cc1c(-c2cc(C(=O)OCCC(C)C)c(Cl)cc2F)nn(C)c1C(F)(F)F [Compound 51]	50	90	70	35	90	100	15	5	80	90	0	60	98	85	75	80	20	85	100	12	% plant inhibition (Bedstraw Catchweed [2]): 55%; % plant inhibition (Blackgrass [4]): 20%; % plant inhibition (Cocklebur [5]): 0%; % plant inhibition (Corn [7]): 8%; % plant inhibition (Soybean [14]): 3%; % plant inhibition (Wild Oats [17]): 15%; % plant inhibition (Bedstraw Catchweed [19]): 40%; % plant inhibition (Blackgrass [21]): 45%; % plant inhibition (Corn [24]): 7%; % plant inhibition (Downy Brome [25]): 45%; % plant inhibition (Giant Foxtail [26]): 85%; % plant inhibition (Morning Glory [28]): 35%; % plant inhibition (Soybean [31]): 65%; % plant inhibition (Wild Oats [34]): 55%
COCC(C)OC(=O)c1cc(-c2nn(C)c(C(F)(F)F)c2C)c(F)cc1Cl (centres unmarked) [Compound 52]	100	95	95	100	100	100	70	60	100	100	0	99	100	100	100	98	100	99	100	25	inhibition at 280.212 g/ha (Bedstraw Catchweed [2]; Galium aparine, pre-emergence, read-out: % plant inhibition): 90%; inhibition at 280.212 g/ha (Blackgrass [4]; Alopecurus myosuroides, pre-emergence, read-out: % plant inhibition): 100%; inhibition at 280.212 g/ha (Cocklebur [5]; Xanthium strumarium, pre-emergence, read-out: % plant inhibition): 65%; inhibition at 280.212 g/ha (Corn [7]; Zea mays, pre-emergence, read-out: % plant inhibition): 75%; inhibition at 280.212 g/ha (Soybean [14]; Glycine max, pre-emergence, read-out: % plant inhibition): 5%; inhibition at 280.212 g/ha (Wild Oats [17]; Avena fatua, pre-emergence, read-out: % plant inhibition): 85%; inhibition at 280.212 g/ha (Bedstraw Catchweed [19]; Galium aparine, post-emergence, read-out: % plant inhibition): 100%; inhibition at 280.212 g/ha (Blackgrass [21]; Alopecurus myosuroides, post-emergence, read-out: % plant inhibition): 95%; inhibition at 280.212 g/ha (Corn [24]; Zea mays, post-emergence, read-out: % plant inhibition): 15%; inhibition at 280.212 g/ha (Downy Brome [25]; Bromus tectorum, post-emergence, read-out: % plant inhibition): 100%; inhibition at 280.212 g/ha (Giant Foxtail [26]; Setaria faberi, post-emergence, read-out: % plant inhibition): 100%; inhibition at 280.212 g/ha (Morning Glory [28]; Ipomoea, post-emergence, read-out: % plant inhibition): 99%; inhibition at 280.212 g/ha (Soybean [31]; Glycine max, post-emergence, read-out: % plant inhibition): 95%; inhibition at 280.212 g/ha (Wild Oats [34]; Avena fatua, post-emergence, read-out: % plant inhibition): 95%
